Each structure is given as a SMILES string.

Type in all cases: binding
For assay [1], the target named is T1, GDP-loaded K-Ras (1-169) C51S, C80L, C118S (Homo sapiens, UniProt P01116, C118S/C51S/C80L).
T1 construct: GDP-loaded K-Ras (1-169) C51S, C80L, C118S
Briefly: K-Ras WT (GDP) cross-linking assay (conjugate formation, TOF mass spectrometry). Further details: key: 0: No observed x-linking; +: 0 < x ≤ 20; ++: 20 < x ≤ 40; +++: 40 < x ≤ 100. The settings on record: percent covalently modified K-Ras by MS, room temperature, typical compound conc. 2, 10, 25 μM, endpoints 1 and 24 h. Put shortly:
(§1)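 5 μM protein (final, from 50 μM) in HEPES/NaCl/MgCl2 buffer pH 7.4 with compound typically at 2, 10 and 25 μM, room temperature, 1 and 24 h endpoints; formic acid quench. Intact-protein LC–TOF MS; percent modification is covalent adduct peak height over total K-Ras peak height.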

Assay [2] concerns the target T2, GDP-loaded K-Ras (1-169) G12D, C51S, C80L, C118S (Homo sapiens, UniProt P01116, C118S/C51S/C80L/G12D).
T2 construct: GDP-loaded K-Ras (1-169) G12D, C51S, C80L, C118S
Put plainly: K-Ras G12D(GDP) cross-linking assay (conjugate formation, TOF mass spectrometry). Also noted: key: 0: No observed x-linking; +: 0 < x ≤ 20; ++: 20 < x ≤ 40; +++: 40 < x ≤ 100. Particulars: percent covalently modified K-Ras by MS, room temperature, typical compound conc. 2, 10, 25 μM, endpoints 1 and 24 h. Put shortly: as §1

A further assay has as its target K-Ras G12S (Homo sapiens, UniProt P01116, G12S). Put plainly: K-Ras G12S cross-linking assay (comparable procedure, conjugate formation, TOF mass spectrometry). Also noted: key: 0: No observed x-linking. The essentials: as §1
Where [3] appears, read: Table 5, percent covalently modified K-Ras by MS.
[4] abbreviates: Table 4, percent covalently modified K-Ras by MS.

With `Cc1cccc2cccc(N3CCc4c(nc(OC[C@@H]5CCCN5C)nc4N4CCC(N=C=NCCn5ccnc5)CC4)C3)c12` [Example 87, N-(2-(1H-imidazol-1-yl)ethyl)-N-(1-(7-(8-methylnaphthalen-1-yl)-2-(((S)-1-methylpyrrolidin-2-yl)methoxy)-5,6,7,8-tetrahydropyrido[3,4-d]pyrimidin-4-yl)piperidin-4-yl)methanediimine], the “WT x-linking (%)” value in assay [1] (Table 5) is on record as “++ (20 < x ≤ 100)”. Also, the “G12D x-linking (%)” value in assay [2] (Table 5) is “+++ (40 < x ≤ 100)”. Besides, the “G12S x-linking (%)” value at K-Ras G12S (setting [3]) is “++ (10 < x ≤ 100)”.
Turning to `Cc1cccc2cccc(N3CCc4c(nc(OC[C@@H]5CCCN5C)nc4N4CCC(N=C=Nc5ccccc5)CC4)C3)c12` [Example 48, N-(1-(7-(8-methylnaphthalen-1-yl)-2-(((S)-1-methylpyrrolidin-2-yl)methoxy)-5,6,7,8-tetrahydropyrido[3,4-d]pyrimidin-4-yl)piperidin-4-yl)-N-phenylmethanediimine], in assay [1] (Table 4), the “WT x-linking (%)” value is recorded as “+ (0 < x ≤ 20)”. Also, the “G12D x-linking (%)” value in assay [2] (Table 4) was “+ (0 < x ≤ 20)”. Besides, the “G12S x-linking (%)” value on K-Ras G12S (setting [4]) is recorded as “+ (0 < x ≤ 10)”.
`CN=C=NC1CCN(c2nc(OC[C@@H]3CCCN3C)nc3c2CCN(c2cccc4cccc(C)c24)C3)CC1` [Example 21, N-methyl-N-(1-(7-(8-methylnaphthalen-1-yl)-2-(((S)-1-methylpyrrolidin-2-yl)methoxy)-5,6,7,8-tetrahydropyrido[3,4-d]pyrimidin-4-yl)piperidin-4-yl)methanediimine]: the “WT x-linking (%)” value in assay [1] (Table 4) is “++ (20 < x ≤ 100)”. The “G12D x-linking (%)” value in assay [2] (Table 4) is recorded as “+++ (40 < x ≤ 100)”. Besides, the “G12S x-linking (%)” value at K-Ras G12S (setting [4]) is reported as “++ (10 < x ≤ 100)”.
With `Cc1cccc2cccc(N3CCc4c(nc(OC[C@@H]5CCCN5C)nc4N4CCC(N(C)C(=O)C5CN5C)CC4)C3)c12` (stereo partly drawn) [Example 45, N,1-dimethyl-N-(1-(7-(8-methylnaphthalen-1-yl)-2-(((S)-1-methylpyrrolidin-2-yl)methoxy)-5,6,7,8-tetrahydropyrido[3,4-d]pyrimidin-4-yl)piperidin-4-yl)aziridine-2-carboxamide], the “WT x-linking (%)” value in assay [1] (Table 4) is given as “+ (0 < x ≤ 20)”. In assay [2] (Table 4), the “G12D x-linking (%)” value is on record as “+ (0 < x ≤ 20)”. For the same compound, the “G12S x-linking (%)” value on K-Ras G12S (setting [4]) is given as “+ (0 < x ≤ 10)”.
Consider `Cc1cccc2cccc(N3CCc4c(nc(OC[C@@H]5CCCN5C)nc4N4CCN(C5=NCCO5)[C@@H](CC#N)C4)C3)c12` [Example 38, 2-((S)-1-(4,5-dihydrooxazol-2-yl)-4-(7-(8-methylnaphthalen-1-yl)-2-(((S)-1-methylpyrrolidin-2-yl)methoxy)-5,6,7,8-tetrahydropyrido[3,4-d]pyrimidin-4-yl)piperazin-2-yl)acetonitrile], for which the “WT x-linking (%)” value in assay [1] (Table 4) is reported as 0. Further, in assay [2] (Table 4), the “G12D x-linking (%)” value amounted to 0. Further, at K-Ras G12S (setting [4]), the “G12S x-linking (%)” value is reported as 0.
Regarding `Cc1cccc2cccc(N3CCc4c(nc(OC[C@@H]5CCCN5C)nc4N4CCC(N=C=NCCN(C)c5ccncn5)CC4)C3)c12` [Example 92, N-methyl-N-(2-((((1-(7-(8-methylnaphthalen-1-yl)-2-(((S)-1-methylpyrrolidin-2-yl)methoxy)-5,6,7,8-tetrahydropyrido[3,4-d]pyrimidin-4-yl)piperidin-4-yl)imino)methylene)amino)ethyl)pyrimidin-4-amine], the “WT x-linking (%)” value in assay [1] (Table 5) is “++ (20 < x ≤ 100)”. In assay [2] (Table 5), the “G12D x-linking (%)” value is “+++ (40 < x ≤ 100)”. On K-Ras G12S (setting [3]), the “G12S x-linking (%)” value was “++ (10 < x ≤ 100)”.
With `COc1ccc(CN=C=NCCCN(C)c2nc(=O)n(-c3c(C)ccnc3C(C)C)c3nc(-c4ccccc4F)c(F)cc23)cc1` [Example 58], the “WT x-linking (%)” value in assay [1] (Table 4) is reported as “+ (0 < x ≤ 20)”. Also, the “G12D x-linking (%)” value in assay [2] (Table 4) is given as “+ (0 < x ≤ 20)”. For the same compound, at K-Ras G12S (setting [4]), the “G12S x-linking (%)” value was “++ (10 < x ≤ 100)”.
In the case of `Cc1cccc2cccc(N3CCc4c(nc(OC[C@@H]5CCCN5C)nc4N4CCC(N=C=NC(C)C)CC4)C3)c12` [Example 23, N-isopropyl-N-(1-(7-(8-methylnaphthalen-1-yl)-2-(((S)-1-methylpyrrolidin-2-yl)methoxy)-5,6,7,8-tetrahydropyrido[3,4-d]pyrimidin-4-yl)piperidin-4-yl)methanediimine], the “WT x-linking (%)” value in assay [1] (Table 4) is on record as “+ (0 < x ≤ 20)”. In addition, the “G12D x-linking (%)” value in assay [2] (Table 4) is given as “++ (20 < x ≤ 40)”. For the same compound, on K-Ras G12S (setting [4]), the “G12S x-linking (%)” value is recorded as “++ (10 < x ≤ 100)”.
Take `Fc1ccccc1-c1c(Cl)cc2c(NCCNC3=NCCO3)ncnc2c1F` [Example 15, N-(6-chloro-8-fluoro-7-(2-fluorophenyl)quinazolin-4-yl)-N^2-(4,5-dihydrooxazol-2-yl)ethane-1,2-diamine]: in assay [1] (Table 4), the “WT x-linking (%)” value is given as “+ (0 < x ≤ 20)”. The “G12D x-linking (%)” value in assay [2] (Table 4) is recorded as “+ (0 < x ≤ 20)”. Also, the “G12S x-linking (%)” value on K-Ras G12S (setting [4]) is “+ (0 < x ≤ 10)”.
In the case of `COc1ccc(CN=C=NC2CCN(c3nc(OC[C@@H]4CCCN4C)nc4c3CCN(c3cccc5cccc(C)c35)C4)CC2)c(OC)c1` [Example 82, N-(2,4-dimethoxybenzyl)-N-(1-(7-(8-methylnaphthalen-1-yl)-2-(((S)-1-methylpyrrolidin-2-yl)methoxy)-5,6,7,8-tetrahydropyrido[3,4-d]pyrimidin-4-yl)piperidin-4-yl)methanediimine], in assay [1] (Table 5), the “WT x-linking (%)” value was “+ (0 < x ≤ 20)”. Besides, the “G12D x-linking (%)” value in assay [2] (Table 5) is recorded as “+ (0 < x ≤ 20)”. The “G12S x-linking (%)” value at K-Ras G12S (setting [3]) is listed as “+ (0 < x ≤ 10)”.
Turning to `Fc1ccccc1-c1c(Cl)cc2c(N3CCC(NC4=NCCO4)CC3)ncnc2c1F` [Example 13, N-(1-(6-chloro-8-fluoro-7-(2-fluorophenyl)quinazolin-4-yl)piperidin-4-yl)-4,5-dihydrooxazol-2-amine], the “WT x-linking (%)” value in assay [1] (Table 4) is “+ (0 < x ≤ 20)”. Moreover, in assay [2] (Table 4), the “G12D x-linking (%)” value was “+ (0 < x ≤ 20)”. On K-Ras G12S (setting [4]), the “G12S x-linking (%)” value is “+ (0 < x ≤ 10)”.
On to `Cc1cccc2cccc(N3CCc4c(nc(OC[C@@H]5CCCN5C)nc4N4CCC(N=C=NCCc5cccs5)CC4)C3)c12` [Example 95, N-(1-(7-(8-methylnaphthalen-1-yl)-2-(((S)-1-methylpyrrolidin-2-yl)methoxy)-5,6,7,8-tetrahydropyrido[3,4-d]pyrimidin-4-yl)piperidin-4-yl)-N-(2-(thiophen-2-yl)ethyl)methanediimine], for which, in assay [1] (Table 5), the “WT x-linking (%)” value is on record as “+ (0 < x ≤ 20)”. The “G12D x-linking (%)” value in assay [2] (Table 5) is on record as “+ (0 < x ≤ 20)”. Also, on K-Ras G12S (setting [3]), the “G12S x-linking (%)” value is “+ (0 < x ≤ 10)”.
In the case of `Cc1cccc2cccc(N3CCc4c(nc(OC[C@@H]5CCCN5C)nc4N4CCN(C(=O)[C@@H]5CN5)[C@@H](CC#N)C4)C3)c12` [Example 64, 2-((S)-1-((S)-aziridine-2-carbonyl)-4-(7-(8-methylnaphthalen-1-yl)-2-(((S)-1-methylpyrrolidin-2-yl)methoxy)-5,6,7,8-tetrahydropyrido[3,4-d]pyrimidin-4-yl)piperazin-2-yl)acetonitrile], in assay [1] (Table 5), the “WT x-linking (%)” value is reported as “+ (0 < x ≤ 20)”. Besides, the “G12D x-linking (%)” value in assay [2] (Table 5) is given as “+ (0 < x ≤ 20)”. At K-Ras G12S (setting [3]), the “G12S x-linking (%)” value is reported as “+ (0 < x ≤ 10)”.
On to `COc1ccc(CN=C=NC2CCN(c3nc(OC[C@@H]4CCCN4C)nc4c3CCN(c3cccc5cccc(C)c35)C4)CC2)cc1` [Example 50, N-(4-methoxybenzyl)-N-(1-(7-(8-methylnaphthalen-1-yl)-2-(((S)-1-methylpyrrolidin-2-yl)methoxy)-5,6,7,8-tetrahydropyrido[3,4-d]pyrimidin-4-yl)piperidin-4-yl)methanediimine], for which the “WT x-linking (%)” value in assay [1] (Table 4) was “+ (0 < x ≤ 20)”. Moreover, the “G12D x-linking (%)” value in assay [2] (Table 4) is reported as “+ (0 < x ≤ 20)”. The “G12S x-linking (%)” value on K-Ras G12S (setting [4]) is listed as “+ (0 < x ≤ 10)”.
Turning to `O=C(C1CN1)N1CCN(c2ncnc3c(F)c(-c4ccccc4F)c(Cl)cc23)CC1` (stereo not drawn) [Example 16, aziridin-2-yl(4-(6-chloro-8-fluoro-7-(2-fluorophenyl)quinazolin-4-yl)piperazin-1-yl)methanone], in assay [1] (Table 4), the “WT x-linking (%)” value is on record as “+ (0 < x ≤ 20)”. Moreover, the “G12D x-linking (%)” value in assay [2] (Table 4) is recorded as “+ (0 < x ≤ 20)”. Besides, the “G12S x-linking (%)” value on K-Ras G12S (setting [4]) is given as “+ (0 < x ≤ 10)”.
Regarding `Cc1cccc2cccc(N3CCc4c(nc(OC[C@@H]5CCCN5C)nc4N4CCC(B(O)O)CC4)C3)c12` [Example 52, (S)-(1-(7-(8-methylnaphthalen-1-yl)-2-((1-methylpyrrolidin-2-yl)methoxy)-5,6,7,8-tetrahydropyrido[3,4-d]pyrimidin-4-yl)piperidin-4-yl)boronic Acid], the “WT x-linking (%)” value in assay [1] (Table 4) is listed as “+ (0 < x ≤ 20)”. The “G12D x-linking (%)” value in assay [2] (Table 4) was “+ (0 < x ≤ 20)”. Also, at K-Ras G12S (setting [4]), the “G12S x-linking (%)” value is “+ (0 < x ≤ 10)”.
Regarding `Cc1cccc2cccc(N3CCc4c(nc(OC[C@@H]5CCCN5C)nc4N4CCC(N=C=NCc5ccc(Cl)cc5)CC4)C3)c12` [Example 49, N-(4-chlorobenzyl)-N-(1-(7-(8-methylnaphthalen-1-yl)-2-(((S)-1-methylpyrrolidin-2-yl)methoxy)-5,6,7,8-tetrahydropyrido[3,4-d]pyrimidin-4-yl)piperidin-4-yl)methanediimine], the “WT x-linking (%)” value in assay [1] (Table 4) is on record as “+ (0 < x ≤ 20)”. Further, the “G12D x-linking (%)” value in assay [2] (Table 4) is recorded as “+ (0 < x ≤ 20)”. Further, the “G12S x-linking (%)” value on K-Ras G12S (setting [4]) was “+ (0 < x ≤ 10)”.
Consider `COCCN=C=NCCCN(C)c1nc(=O)n(-c2c(C)ccnc2C(C)C)c2nc(-c3ccccc3F)c(F)cc12` [Example 56], for which the “WT x-linking (%)” value in assay [1] (Table 4) was “++ (20 < x ≤ 100)”. For the same compound, the “G12D x-linking (%)” value in assay [2] (Table 4) is recorded as “++ (20 < x ≤ 40)”. Besides, at K-Ras G12S (setting [4]), the “G12S x-linking (%)” value was “++ (10 < x ≤ 100)”.

(Values after patent US20230100838A1 (Revolution Medicines, Inc., priority 2019, published 2023).)
